From ChEMBL document CHEMBL4507264, “Data for DCP probe BAY-7598” (2021)

How the values were obtained:
[1] = system: Tyrosine-protein kinase ABL1 (Homo sapiens), P00519 [Q252H]; conditions: Compound concentration 1000.0 nM
[2] = target: Bone morphogenetic protein receptor type-1A (Homo sapiens) (UniProt P36894); conditions: Compound concentration 1000.0 nM
[3] = target: Bone morphogenetic protein receptor type-2 (Homo sapiens) (UniProt Q13873); conditions: Compound concentration 1000.0 nM
[4] = target: Cyclin-dependent kinase-like 1 (Homo sapiens) (UniProt Q00532); conditions: Compound concentration 1000.0 nM
[5] = target: Epithelial discoidin domain-containing receptor 1 (Homo sapiens) (UniProt Q08345); conditions: Compound concentration 1000.0 nM
[6] = target: Serine/threonine-protein kinase 17B (Homo sapiens) (UniProt O94768); conditions: Compound concentration 1000.0 nM
[7] = system: Epidermal growth factor receptor (Homo sapiens), P00533 [L858R]; conditions: Compound concentration 1000.0 nM
[8] = target: Ephrin type-B receptor 2 (Homo sapiens) (UniProt P29323); conditions: Compound concentration 1000.0 nM
[9] = system: Receptor-type tyrosine-protein kinase FLT3 (Homo sapiens), P36888 [D835H]; conditions: Compound concentration 1000.0 nM
[10] = target: Rhodopsin kinase GRK7 (Homo sapiens) (UniProt Q8WTQ7); conditions: Compound concentration 1000.0 nM
[11] = target: Hormonally up-regulated neu tumor-associated kinase (Homo sapiens) (UniProt P57058); conditions: Compound concentration 1000.0 nM
[12] = target: Insulin receptor (Homo sapiens) (UniProt P06213); conditions: Compound concentration 1000.0 nM
[13] = system: Mast/stem cell growth factor receptor Kit (Homo sapiens), P10721 [V559D]; conditions: Compound concentration 1000.0 nM
[14] = target: Serine/threonine-protein kinase LATS2 (Homo sapiens) (UniProt Q9NRM7); conditions: Compound concentration 1000.0 nM
[15] = target: Leukocyte tyrosine kinase receptor (Homo sapiens) (UniProt P29376); conditions: Compound concentration 1000.0 nM
[16] = target: Mitogen-activated protein kinase kinase kinase 1 (Homo sapiens) (UniProt Q13233); conditions: Compound concentration 1000.0 nM
[17] = target: Mitogen-activated protein kinase kinase kinase 4 (Homo sapiens) (UniProt Q9Y6R4); conditions: Compound concentration 1000.0 nM
[18] = system: Hepatocyte growth factor receptor (Homo sapiens), P08581 [M1250T]; conditions: Compound concentration 1000.0 nM
[19] = target: Myosin light chain kinase (Homo sapiens) (UniProt Q32MK0); conditions: Compound concentration 1000.0 nM
[20] = target: Serine/threonine-protein kinase 26 (Homo sapiens) (UniProt Q9P289); conditions: Compound concentration 1000.0 nM
[21] = target: Serine/threonine-protein kinase Nek6 (Homo sapiens) (UniProt Q9HC98); conditions: Compound concentration 1000.0 nM
[22] = target: Platelet-derived growth factor receptor beta (Homo sapiens) (UniProt P09619); conditions: Compound concentration 1000.0 nM
[23] = target: 3-phosphoinositide-dependent protein kinase 1 (Homo sapiens) (UniProt O15530); conditions: Compound concentration 1000.0 nM
[24] = target: Cyclin-dependent kinase 2 homolog (Plasmodium falciparum (isolate 3D7)) (UniProt P61075); conditions: Compound concentration 1000.0 nM
[25] = system: Phosphatidylinositol 4,5-bisphosphate 3-kinase catalytic subunit alpha isoform (Homo sapiens), P42336 [Q546K]; conditions: Compound concentration 1000.0 nM
[26] = target: Phosphatidylinositol 4,5-bisphosphate 3-kinase catalytic subunit beta isoform (Homo sapiens) (UniProt P42338); conditions: Compound concentration 1000.0 nM
[27] = target: Serine/threonine-protein kinase pim-3 (Homo sapiens) (UniProt Q86V86); conditions: Compound concentration 1000.0 nM
[28] = target: Protein kinase C eta type (Homo sapiens) (UniProt P24723); conditions: Compound concentration 1000.0 nM
[29] = target: Serine/threonine-protein kinase PRP4 homolog (Homo sapiens) (UniProt Q13523); conditions: Compound concentration 1000.0 nM
[30] = target: Receptor-interacting serine/threonine-protein kinase 4 (Homo sapiens) (UniProt P57078); conditions: Compound concentration 1000.0 nM
[31] = target: Proto-oncogene tyrosine-protein kinase ROS (Homo sapiens) (UniProt P08922); conditions: Compound concentration 1000.0 nM
[32] = target: Ribosomal protein S6 kinase alpha-1 (Homo sapiens) (UniProt Q15418); conditions: Compound concentration 1000.0 nM
[33] = target: Ribosomal protein S6 kinase alpha-6 (Homo sapiens) (UniProt Q9UK32); conditions: Compound concentration 1000.0 nM
[34] = target: Uncharacterized serine/threonine-protein kinase SBK3 (Homo sapiens) (UniProt P0C264); conditions: Compound concentration 1000.0 nM
[35] = target: Serine/threonine-protein kinase Sgk3 (Homo sapiens) (UniProt Q96BR1); conditions: Compound concentration 1000.0 nM
[36] = target: Serine/threonine-protein kinase SIK2 (Homo sapiens) (UniProt Q9H0K1); conditions: Compound concentration 1000.0 nM
[37] = target: SNF-related serine/threonine-protein kinase (Homo sapiens) (UniProt Q9NRH2); conditions: Compound concentration 1000.0 nM
[38] = target: SRSF protein kinase 2 (Homo sapiens) (UniProt P78362); conditions: Compound concentration 1000.0 nM
[39] = target: Serine/threonine-protein kinase 35 (Homo sapiens) (UniProt Q8TDR2); conditions: Compound concentration 1000.0 nM
[40] = target: TGF-beta receptor type-1 (Homo sapiens) (UniProt P36897); conditions: Compound concentration 1000.0 nM
[41] = target: High affinity nerve growth factor receptor (Homo sapiens) (UniProt P04629); conditions: Compound concentration 1000.0 nM
[42] = target: Wee1-like protein kinase (Homo sapiens) (UniProt P30291); conditions: Compound concentration 1000.0 nM
[43] = target: Serine/threonine-protein kinase WNK2 (Homo sapiens) (UniProt Q9Y3S1); conditions: Compound concentration 1000.0 nM
[44] = target: Serine/threonine-protein kinase WNK3 (Homo sapiens) (UniProt Q9BYP7); conditions: Compound concentration 1000.0 nM
[45] = target: Alpha-1B adrenergic receptor (Homo sapiens) (UniProt P35368); conditions: Compound concentration 10.0 uM
Sequence of Alpha-1B adrenergic receptor (Homo sapiens) (P35368 whole entry): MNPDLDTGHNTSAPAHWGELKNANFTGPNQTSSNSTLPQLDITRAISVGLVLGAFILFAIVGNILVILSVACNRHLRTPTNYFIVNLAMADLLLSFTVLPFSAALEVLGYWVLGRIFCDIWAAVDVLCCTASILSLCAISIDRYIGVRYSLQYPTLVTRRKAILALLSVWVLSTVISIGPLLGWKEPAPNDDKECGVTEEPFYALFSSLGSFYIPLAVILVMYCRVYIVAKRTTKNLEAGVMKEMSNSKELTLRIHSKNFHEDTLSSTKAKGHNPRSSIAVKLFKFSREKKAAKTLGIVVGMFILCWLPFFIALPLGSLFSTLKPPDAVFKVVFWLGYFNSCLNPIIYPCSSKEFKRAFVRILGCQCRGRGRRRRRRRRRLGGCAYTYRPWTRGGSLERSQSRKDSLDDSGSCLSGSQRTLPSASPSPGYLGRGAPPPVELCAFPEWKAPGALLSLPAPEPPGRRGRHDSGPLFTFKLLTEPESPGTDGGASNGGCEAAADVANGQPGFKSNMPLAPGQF

Sequence of Serine/threonine-protein kinase 17B (Homo sapiens) (O94768 whole entry): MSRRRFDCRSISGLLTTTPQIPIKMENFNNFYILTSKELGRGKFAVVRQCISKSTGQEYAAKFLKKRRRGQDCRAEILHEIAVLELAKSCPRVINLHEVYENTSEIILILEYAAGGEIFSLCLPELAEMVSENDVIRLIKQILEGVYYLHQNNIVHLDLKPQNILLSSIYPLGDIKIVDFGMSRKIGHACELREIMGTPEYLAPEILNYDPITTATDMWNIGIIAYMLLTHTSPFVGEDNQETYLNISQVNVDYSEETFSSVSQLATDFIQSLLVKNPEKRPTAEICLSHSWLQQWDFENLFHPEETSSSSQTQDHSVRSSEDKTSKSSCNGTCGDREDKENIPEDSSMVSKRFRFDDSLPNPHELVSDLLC
Sequence of Leukocyte tyrosine kinase receptor (Homo sapiens) (P29376 whole entry): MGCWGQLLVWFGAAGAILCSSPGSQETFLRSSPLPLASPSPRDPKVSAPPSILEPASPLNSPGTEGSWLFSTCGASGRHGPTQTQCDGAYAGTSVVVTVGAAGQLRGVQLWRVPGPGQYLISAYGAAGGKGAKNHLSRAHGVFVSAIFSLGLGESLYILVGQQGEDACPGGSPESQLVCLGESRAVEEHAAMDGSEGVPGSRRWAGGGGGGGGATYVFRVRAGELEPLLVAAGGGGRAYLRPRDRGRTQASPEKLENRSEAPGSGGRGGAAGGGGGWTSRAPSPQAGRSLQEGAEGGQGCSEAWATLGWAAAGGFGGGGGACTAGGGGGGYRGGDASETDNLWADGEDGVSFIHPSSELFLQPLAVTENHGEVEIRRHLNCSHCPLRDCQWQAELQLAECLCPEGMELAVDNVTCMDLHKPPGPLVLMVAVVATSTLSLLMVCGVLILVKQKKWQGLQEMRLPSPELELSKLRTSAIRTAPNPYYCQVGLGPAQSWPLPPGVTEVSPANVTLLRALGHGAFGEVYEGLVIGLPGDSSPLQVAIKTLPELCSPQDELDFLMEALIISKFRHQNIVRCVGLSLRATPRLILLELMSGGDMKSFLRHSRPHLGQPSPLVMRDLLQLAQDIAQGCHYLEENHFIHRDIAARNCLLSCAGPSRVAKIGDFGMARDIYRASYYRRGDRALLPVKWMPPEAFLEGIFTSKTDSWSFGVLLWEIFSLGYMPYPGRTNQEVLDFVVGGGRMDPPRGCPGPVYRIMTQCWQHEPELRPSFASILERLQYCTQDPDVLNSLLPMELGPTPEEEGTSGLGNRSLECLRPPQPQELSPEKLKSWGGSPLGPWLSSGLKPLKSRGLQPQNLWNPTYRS
Sequence of Wee1-like protein kinase (Homo sapiens) (P30291 whole entry, looked up): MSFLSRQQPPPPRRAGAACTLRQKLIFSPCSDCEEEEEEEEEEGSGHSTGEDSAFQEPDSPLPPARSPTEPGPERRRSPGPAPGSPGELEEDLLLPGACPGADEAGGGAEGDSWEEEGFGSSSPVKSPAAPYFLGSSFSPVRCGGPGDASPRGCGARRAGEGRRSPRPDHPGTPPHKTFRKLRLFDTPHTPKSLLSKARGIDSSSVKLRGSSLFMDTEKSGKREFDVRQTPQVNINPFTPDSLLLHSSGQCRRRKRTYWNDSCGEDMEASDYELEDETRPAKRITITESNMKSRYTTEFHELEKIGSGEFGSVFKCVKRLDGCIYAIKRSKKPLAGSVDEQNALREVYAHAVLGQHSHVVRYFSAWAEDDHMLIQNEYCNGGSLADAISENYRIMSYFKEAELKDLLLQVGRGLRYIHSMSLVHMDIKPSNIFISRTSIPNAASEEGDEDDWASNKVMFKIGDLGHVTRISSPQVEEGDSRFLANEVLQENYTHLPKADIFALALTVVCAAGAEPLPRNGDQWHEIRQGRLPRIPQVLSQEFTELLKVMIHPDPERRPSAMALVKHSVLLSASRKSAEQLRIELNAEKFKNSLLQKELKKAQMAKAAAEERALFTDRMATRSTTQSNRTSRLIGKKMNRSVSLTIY
Sequence of Serine/threonine-protein kinase WNK2 (Homo sapiens) (Q9Y3S1 whole entry): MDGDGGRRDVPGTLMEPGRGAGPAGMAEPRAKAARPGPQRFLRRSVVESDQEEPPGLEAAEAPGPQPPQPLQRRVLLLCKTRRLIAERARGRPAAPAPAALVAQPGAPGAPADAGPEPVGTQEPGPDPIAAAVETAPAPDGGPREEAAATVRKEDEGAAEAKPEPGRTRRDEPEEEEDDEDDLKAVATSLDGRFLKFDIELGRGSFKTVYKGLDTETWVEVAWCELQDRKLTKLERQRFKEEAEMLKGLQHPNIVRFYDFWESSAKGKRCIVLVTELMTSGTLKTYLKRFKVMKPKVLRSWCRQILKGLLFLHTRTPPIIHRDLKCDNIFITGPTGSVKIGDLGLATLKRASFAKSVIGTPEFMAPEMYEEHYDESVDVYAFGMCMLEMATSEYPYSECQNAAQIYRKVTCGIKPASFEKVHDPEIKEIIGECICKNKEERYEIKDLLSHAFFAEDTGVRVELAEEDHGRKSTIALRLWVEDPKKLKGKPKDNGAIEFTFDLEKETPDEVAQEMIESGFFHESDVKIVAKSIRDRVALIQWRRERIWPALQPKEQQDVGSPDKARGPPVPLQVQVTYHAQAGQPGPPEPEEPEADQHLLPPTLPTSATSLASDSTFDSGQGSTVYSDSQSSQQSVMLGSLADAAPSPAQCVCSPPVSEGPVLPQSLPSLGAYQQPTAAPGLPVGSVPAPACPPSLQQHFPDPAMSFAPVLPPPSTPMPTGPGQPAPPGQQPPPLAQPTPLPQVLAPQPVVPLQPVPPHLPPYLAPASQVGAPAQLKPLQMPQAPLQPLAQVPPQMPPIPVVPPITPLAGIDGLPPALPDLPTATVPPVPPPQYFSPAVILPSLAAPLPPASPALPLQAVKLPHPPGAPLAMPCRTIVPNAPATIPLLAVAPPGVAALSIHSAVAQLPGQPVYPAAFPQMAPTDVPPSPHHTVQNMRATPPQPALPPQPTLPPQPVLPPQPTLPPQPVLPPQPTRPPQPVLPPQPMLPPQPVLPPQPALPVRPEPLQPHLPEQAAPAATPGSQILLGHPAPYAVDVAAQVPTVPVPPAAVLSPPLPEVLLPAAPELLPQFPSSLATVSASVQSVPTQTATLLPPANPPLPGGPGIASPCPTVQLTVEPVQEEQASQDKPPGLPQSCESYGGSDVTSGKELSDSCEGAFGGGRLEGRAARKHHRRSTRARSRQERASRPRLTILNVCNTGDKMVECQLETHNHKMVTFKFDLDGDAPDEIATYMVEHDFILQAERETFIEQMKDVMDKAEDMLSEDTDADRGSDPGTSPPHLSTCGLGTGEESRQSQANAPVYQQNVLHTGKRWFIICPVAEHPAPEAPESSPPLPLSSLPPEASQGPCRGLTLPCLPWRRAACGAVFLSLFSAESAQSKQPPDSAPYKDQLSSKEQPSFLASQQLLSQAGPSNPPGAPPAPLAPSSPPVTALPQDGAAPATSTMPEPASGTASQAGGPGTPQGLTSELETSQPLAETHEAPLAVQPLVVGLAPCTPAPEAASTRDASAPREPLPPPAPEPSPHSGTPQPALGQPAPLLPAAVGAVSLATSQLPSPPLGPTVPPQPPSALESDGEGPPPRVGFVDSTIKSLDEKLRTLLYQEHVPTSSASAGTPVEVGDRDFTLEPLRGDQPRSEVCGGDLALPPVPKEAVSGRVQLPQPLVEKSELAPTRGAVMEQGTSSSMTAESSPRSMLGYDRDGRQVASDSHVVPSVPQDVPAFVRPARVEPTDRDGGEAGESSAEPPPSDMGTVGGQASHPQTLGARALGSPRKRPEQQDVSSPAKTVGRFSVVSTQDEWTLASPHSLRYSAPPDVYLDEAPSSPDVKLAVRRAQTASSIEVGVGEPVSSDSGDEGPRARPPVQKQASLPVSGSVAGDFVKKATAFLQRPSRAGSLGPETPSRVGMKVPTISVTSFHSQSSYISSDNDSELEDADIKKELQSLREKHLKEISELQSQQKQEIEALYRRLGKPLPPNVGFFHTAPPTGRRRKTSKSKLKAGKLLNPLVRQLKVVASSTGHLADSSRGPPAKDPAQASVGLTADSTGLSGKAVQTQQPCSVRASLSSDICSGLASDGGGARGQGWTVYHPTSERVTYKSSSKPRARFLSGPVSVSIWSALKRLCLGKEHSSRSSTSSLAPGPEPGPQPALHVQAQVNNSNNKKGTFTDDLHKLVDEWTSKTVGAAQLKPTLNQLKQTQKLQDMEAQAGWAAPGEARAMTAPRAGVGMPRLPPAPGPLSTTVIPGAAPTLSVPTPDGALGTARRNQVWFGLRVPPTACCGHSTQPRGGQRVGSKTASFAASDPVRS
Sequence of Serine/threonine-protein kinase Nek6 (Homo sapiens) (Q9HC98 whole entry): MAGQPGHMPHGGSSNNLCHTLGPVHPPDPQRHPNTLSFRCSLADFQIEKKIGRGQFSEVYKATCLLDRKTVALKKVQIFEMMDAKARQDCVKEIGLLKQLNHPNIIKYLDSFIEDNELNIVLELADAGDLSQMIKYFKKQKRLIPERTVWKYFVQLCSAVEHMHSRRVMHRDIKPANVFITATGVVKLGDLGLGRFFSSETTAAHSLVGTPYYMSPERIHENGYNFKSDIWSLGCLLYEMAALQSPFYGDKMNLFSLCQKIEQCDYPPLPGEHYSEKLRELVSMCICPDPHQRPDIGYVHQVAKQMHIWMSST

O=C(O)[C@@H]1[C@@H](Cn2nnc3ccccc3c2=O)CC[C@H]1C(=O)c1ccc(OCCC2CCOCC2)cc1 [BAY-694]
inactive: residual activity [1] 92% | residual activity [2] 100% | residual activity [3] 98% | residual activity [4] 100% | residual activity [5] 100% | residual activity [6] 99% | residual activity [7] 100% | residual activity [8] 100% | residual activity [9] 83% | residual activity [10] 100% | residual activity [11] 100% | residual activity [12] 85% | residual activity [13] 100% | residual activity [14] 100% | residual activity [15] 100% | residual activity [16] 100% | residual activity [17] 91% | residual activity [18] 100% | residual activity [19] 72% | residual activity [20] 100% | residual activity [21] 100% | residual activity [22] 100% | residual activity [23] 80% | residual activity [24] 100% | residual activity [25] 86% | residual activity [26] 66% | residual activity [27] 84% | residual activity [28] 100% | residual activity [29] 80% | residual activity [30] 81% | residual activity [31] 95% | residual activity [32] 92% | residual activity [33] 100% | residual activity [35] 100% | residual activity [36] 91% | residual activity [37] 100% | residual activity [38] 100% | residual activity [39] 100% | residual activity [40] 100% | residual activity [41] 86% | residual activity [42] 93% | residual activity [43] 82% | residual activity [44] 100% | inhibition [45] 6.29%
active: residual activity [34] 43%

O=C(O)[C@H]1[C@H](Cn2nnc3ccccc3c2=O)CC[C@@H]1C(=O)c1ccc(OCCC2CCOCC2)cc1 [BAY-7598]
inactive: residual activity [1] 83% | residual activity [2] 61% | residual activity [3] 100% | residual activity [4] 99% | residual activity [5] 100% | residual activity [6] 100% | residual activity [7] 95% | residual activity [8] 100% | residual activity [9] 72% | residual activity [10] 100% | residual activity [11] 71% | residual activity [12] 78% | residual activity [13] 100% | residual activity [14] 100% | residual activity [15] 100% | residual activity [16] 100% | residual activity [17] 100% | residual activity [18] 100% | residual activity [19] 93% | residual activity [20] 87% | residual activity [21] 100% | residual activity [22] 88% | residual activity [23] 74% | residual activity [24] 91% | residual activity [25] 97% | residual activity [26] 80% | residual activity [27] 86% | residual activity [28] 89% | residual activity [29] 67% | residual activity [30] 80% | residual activity [31] 95% | residual activity [32] 95% | residual activity [33] 97% | residual activity [34] 100% | residual activity [35] 100% | residual activity [36] 100% | residual activity [37] 95% | residual activity [38] 100% | residual activity [39] 100% | residual activity [40] 90% | residual activity [41] 88% | residual activity [42] 100% | residual activity [43] 99% | residual activity [44] 100% | inhibition [45] 7.47%
